The results in this text go back to US20160058712A1, “3-HYDROXYPTEROSTILBENE AND THERAPEUTIC APPLICATIONS THEREOF” (priority 2014, published 2016).

The test system of experiment [1] is PARP, DFF-45, pro-caspase 8 and pro-caspase 9 in COLO 205 cells. As to the kind of experiment: Western blotting of PARP, DFF-45, pro-caspase 8 and pro-caspase 9 cleavage. The experiment is classed as cell-based, human. Particulars: COLO 205 cell lysates. The protocol:
Western blotting analysis was performed as follows. The total proteins of COLO 205 cells were extracted via addition of gold lysis buffer (50 mM TrisHCl, pH 7.4; 1 mM NaF; 150 mM NaCl; 1 mM EGTA; 1 mM phenylmethanesulfonyl fluoride; 1% NP40; and 10 μg/mL leupeptin) to the cell pellets on ice for 30 min, followed by centrifugation at 10,000×g for 30 min at 4° C. The total proteins were measured by BioRad Protein Assay (BioRad Laboratories, Munich, Germany). The samples (50 μg of protein) were mixed with 5× sample buffer containing 0.3 M TrisHCl (pH 6.8), 25% 2mercaptoethanol, 12% sodium dodecyl sulfate (SDS), 25 mM EDTA, 20% glycerol, and 0.1% bromophenol blue. The mixtures were boiled at 100° C. for 5 min and were subjected to 10% SDS polyacrylamide minigels at a constant current of 20 mA. Electrophoresis was then carried out on SDSpolyacrylaniide gels. Proteins on the gel were electrotransferred onto an immobile membrane (PVDF; Millipore Corp., Bedford, Mass.) with transfer buffer composed of 25 mM TrisHCl (pH8.9), 192 mM glycine, and 20% methanol. The membranes were blocked with blocking solution containing 20 mM TrisHCl, and then immunoblotted with different primary antibodies and β actin. The blots were rinsed three times with PBST buffer (0.2% Tween 20 in 1× PBS buffer) for 10 min each. Then blots were incubated with 1:5000 dilution of the horseradish peroxidase (HRP) conjugated secondary antibody (Zymed Laboratories, San Francisco, Calif.) and then washed again three times with PBST buffer. The transferred proteins were visualized with an enhanced chemi-luminescence detection kit (ECL Amersham Pharmacia Biotech, Buckinghamshire, UK). The densities of the bands were quantified with a computer densitometer (AlphaImager™ 2200 System Alpha densitometer. Innotech Corporation, San Leandro, Calif.). […] The pro-caspase 8 cleavage by 3-HPT was moderate (FIG. 12).

Experiment [2] concerns Bcl-xL and Bax in PC-3 cells. Put plainly: Western blot of Bcl-xL and Bax expression. The class given is cell-based, human. As to conditions: PC-3, 10 μM, different time intervals.
The subject of experiment [3] is COLO 205 cells. As to the kind of experiment: Flow cytometry analysis of subG1 cell population (PI staining). The experiment is classed as cell-based, human. Particulars: 24 h. How it is done:
For subG1 cell population analysis, COLO 205 cells (2×10^5 cells/mL) were cultured in 12 well and treatment with various concentrations of pterostilbene or 3-hydroxypterostilbene for 24 h. The cells were then harvested, washed with PBS, re-suspended in 200 μL of PBS, and fixed in 800 μL of iced 100% ethanol at […]. After being left to stand overnight, the cell pellets were collected by centrifugation, re-suspended in 1 mL of hypotonic buffer (0.5% Triton X100 in PBS and 0.5 μg/mL RNase) with PI (50 μg/mL) and incubated at 37° C. in the dark for 30 min. Fluorescence emitted from the PIDNA complex was quantitated after excitation of the fluorescent dye by FACScan cytometry (Becton Dickinson, San Jose, Calif.). […] The results indicated a higher apoptotic potential of 3-hydroxypterostilbene for COLO 205 cells.
A general note: A flow cytometer gives signals particle by particle.

Experiment [4] relates to caspase 3 activity in COLO 205 cells. As to the kind of experiment: Fluorogenic caspase induction assay. The class given is cell-based, human. As to conditions: COLO 205, after 24 hours of treatment. How it is done: The caspase 3, 8 and 9 induction activity in protein extractions of COLO 205 cells was determined by a fluorogenic assay (Promega's CaspACE Assay System, Madison, Wis.). Briefly, 50 μg of total protein, as determined by the BioRad protein assay kit (BioRad Laboratories), was incubated with 50 μM substrate Ac-Asp-Glu-Val-Asp-methylcoumaryl-7-amine (caspase3 specific substrate), Ac-Ile-Glu-Thr-Asp-AMC ([…]) (caspase 8 specific substrate), or Ac-Leu-Glu-His-Asp-AMC (Ac-LEHD-AMC) (caspase 9 specific substrate) at 30° C. for 1 h. The release of methylcoumaryl-7-amine was measured by excitation at 360 nm and emission at 460 nm using a fluorescence spectrophotometer (ECLIPSE, Varian, Palo Alto, Calif.).

For experiment [5], the system named is PI3K/Akt, MAPKs and mTOR signaling in COLO 205 cells. Put plainly: Western blotting of mTOR/p70S6K, PI3K/Akt and MAPKs signaling. The class given is cell-based, human. As to conditions: COLO 205, 50 μM, 24 hours. The protocol: (§1) Western blotting analysis was performed as follows. The total proteins of COLO 205 cells were extracted via addition of gold lysis buffer (50 mM TrisHCl, pH 7.4; 1 mM NaF; 150 mM NaCl; 1 mM EGTA; 1 mM phenylmethanesulfonyl fluoride; 1% NP40; and 10 μg/mL leupeptin) to the cell pellets on ice for 30 min, followed by centrifugation at 10,000×g for 30 min at 4° C. The total proteins were measured by BioRad Protein Assay (BioRad Laboratories, Munich, Germany). The samples (50 μg of protein) were mixed with 5× sample buffer containing 0.3 M TrisHCl (pH 6.8), 25% 2mercaptoethanol, 12% sodium dodecyl sulfate (SDS), 25 mM EDTA, 20% glycerol, and 0.1% bromophenol blue. The mixtures were boiled at 100° C. for 5 min and were subjected to 10% SDS polyacrylamide minigels at a constant current of 20 mA. Electrophoresis was then carried out on SDSpolyacrylaniide gels. […] The transferred proteins were visualized with an enhanced chemi-luminescence detection kit (ECL Amersham Pharmacia Biotech, Buckinghamshire, UK). The densities of the bands were quantified with a computer densitometer (AlphaImager™ 2200 System Alpha densitometer. Innotech Corporation, San Leandro, Calif.). […]
(§2) COLO 205 cells were treated with 50 μM pterostilbene or 3-hydroxypterostilbene for 24 hours. Cell lysates were prepared after 24 h treatment and the protein expression of LC3 were analyzed by Western blotting.

For experiment [6], the system named is LC3 I/II in COLO 205 cells. Put plainly: Western blotting of LC3 I/II expression. Particulars: COLO 205, 50 μM, 24 hours, compared to pterostilbene. The experiment is classed as cell-based, human. The protocol: as §1, §2
For orientation: A western blot detects proteins with antibodies after separation by electrophoresis.

Experiment [7] relates to COLO 205 cells. As to the kind of experiment: MTT cell viability assay, COLO 205. The experiment is classed as cell-based. Particulars: Homo sapiens, COLO205, MTT, 24 h. How it is done: The human colon cancer cell lines COLO 205, HCT116 and HT29 were purchased from the American Type Culture Collection (Rockville, Md.). Cell lines were grown in RPMI1640 supplemented with 10% heat inactivated fetal bovine serum (GIBCO BRL, Grand Island, N.Y.), 100 units/mL of penicillin, 100 μg/mL of streptomycin), 2 mM L-glutamine (GIBCO BRL, Grand Island, N.Y.), and were kept at 37° C. in a humidified 5% CO2 incubator. Pterostilbene and 3-HPT were dissolved in dimethyl sulfoxide (DMSO, as final concentration of 0.05%). Cells were treated with 0.05% DMSO as vehicle control.
(§3) Cell viability was assayed by 3(4,5-dimethylthiazol-2-yl)-2,5-diphenyltetrazolium bromide (MTT). Briefly. COLO 205, HCT116 and HT29 cells were plated at a density of 2×10^2 cells/mL into 96 well plates. After overnight growth, cells were treated with a series of concentrations of pterostilbene or 3-hydroxypterostilbene for 24 h. The final concentrations of DMSO in the culture medium were <0.05%. At the end of treatment, 0.2% MTT was added and cells were incubated for a further 4 h. Cell viability was determined by scanning with an ELISA reader with a 570 nm filter.

Experiment [8] concerns PC-3 (Human prostate cancer cell line). As to the kind of experiment: MTT cell viability assay, PC-3. The experiment is classed as cell-based. The protocol:
as §3
The MTT reaction explained in Para 0040 was also used to assess the cell viability of human prostate cancer cells (PC-3) in the presence of pterostilbene and 3-hydroxypterostilbene. The results (FIG. 1) are represented in Table II.
(Formazan colour is commonly taken as a measure of viable cells.)

What is called IC50 is the point on the concentration scale where inhibition reaches its midpoint. High values mean lower potency, low ones higher potency. With `COc1cc(/C=C/c2ccc(O)c(O)c2)cc(OC)c1` [3-hydroxypterostilbene, 3,4-dihydroxy-3′,5′-dimethoxy-trans-stilbene], in experiment [1], the DFF45 protein degradation entry is given as “induced DFF45 protein degradation”. Also, the “pro-caspase 8 cleavage” value in experiment [1] is “moderate”. Further, the “pro-caspase 9 cleavage” value in experiment [1] was “much better than that exemplified by pterostilbene”. Besides, the “degradation of PARP” value in experiment [1] (compared with pterostilbene) was “markedly caused the degradation of 116 kDa PARP into 85 kDa fragments”. Also, the “Bax (pro-apoptotic protein) expression” value in experiment [2] is recorded as “upregulates”. In addition, the “Bcl-xL (anti-apoptotic protein) expression” value in experiment [2] is given as “clearly down-regulates”. Also, the “percentage of apoptotic COLO 205 cells (subG1)” value turned out to be 7.2% in the experiment on COLO 205 cells [3] (5 μM), 9.3% in the experiment with COLO 205 cells [3] (10 μM), 20.1% with COLO 205 cells [3] (25 μM) and 36.3% with COLO 205 cells [3] (50 μM). Also, in experiment [4], the “increase in caspase 3 activity” value was “approximately 2.4 fold”. Also, the “PI3K/Akt and MAPKs signalings, phosphorylation of mTOR” value in experiment [5] is on record as “significantly down regulated”. For the same compound, the “protein LC3 I/II expression” value in experiment [6] is “Enhanced protein LC3 I/II expression”. For the same compound, the IC50 with COLO 205 cells [7] amounted to 9 ± 0.2 µM; in experiment [8] (Homo sapiens, PC-3, MTT) it was 5 µM. Further, the growth inhibitory effect result in experiment [8] (PC-3 human prostate cancer cells) is “strong growth inhibitory effect”.
